These results are taken from article PMC10451034, “Highly Efficient Photosensitizers with Molecular Vibrational Torsion for Cancer Photodynamic Therapy” (ACS Central Science, 2023).

Data set [1] in a line: Singlet oxygen quantum yield by DPBF decay curve method. It counts as physicochemical. Particulars: in dichloromethane. On the procedure:
Afterward, the singlet oxygen yields of the series of molecules were preliminarily measured and analyzed by the 1,3-diphenylisobenzofuran (DPBF) decay curve method (Figures 2d,e and S2). […] Meanwhile, in order to exclude the effect of the rigid structure, ΦΔ of a Cy7-like reference molecule (TCy7C) with a rigidified structure but absence of an oxygen atom was measured. The singlet oxygen yield of TCy7C was 2.2%, even lower than that of TCy7 under the same conditions (Figure S3). […]
Photoexcited singlet oxygen production was detected by employed 1,3-diphenylisobenzofuran (DPBF) as the indicator. The absorbance of DPBF at 415 nm was regulated to about 1.0 in DCM. And the samples were irradiated with 660 nm light for various times, then the absorption spectra of different time nodes were recorded.
The singlet oxygen quantum yield (ΦΔ) was calculated by the following equation:
Where “Φ” represent the singlet oxygen quantum yield , “sam” and “std” represent QTCy7-R and MB, respectively. “m” is the slope of the absorbance of DPBF at 415 nm with time, F=1–10-O.D. (O.D. is the absorbance of samples at 660 nm). […]

The nature of data set [2]: UV-vis absorption, fluorescence emission, absolute fluorescence quantum yield and fluorescence lifetime. It counts as physicochemical. On the procedure: First, the UV–vis absorption and fluorescence emission spectra of the series of compounds were measured and analyzed. […] Concurrently, the Stokes shifts of all four compounds were more than 60 nm (Figure 2a,b and Table 1), which could effectively improve the signal-to-noise ratio (SNR) of fluorescence compared to the ordinary TCy7. The fluorescence lifetimes of all four compounds were within 2 ns, indicating no delayed fluorescence generation (Figure 2c and Table 1). […]
Materials and Instrumentation
All the general chemicals used in this paper are purchased from Energy Chemical Co. and Innochem Chemical Co. unless otherwise specified. All solvents were […]
analytically pure. […]
All the other solvents and reagents used in this study were of analytical grade. All the BALB/c mice were purchased from Liaoning […]
III 500 spectrometers. Absorption and emission spectra for all the compounds were achieved on the Agilent Technologies CARY 60 UV -Vis spectrophotometer and VAEIAN CARY Eclipse fluorescence spectrop hotometer (Serial No. FL0812 -M018), […]
respectively. Unless otherwise specified, all spectroscopic tests were performed in a quartz cell (10×10 mm). Fluorescence quantum yield of all the compounds were measured on the HAMAMATSU absolute fluorescence quantum yield spectrometer (Serial No. C11347). Triplet lifetime of compounds were acquired on LP980 laser flash photolysis spectrometer (Edinburgh Instruments, U.K.). The cell confocal laser scanning microscope (CLSM) images were all obtained by using Olympus FV3000 confocal laser scanning microscope. […]
Figure 4, Figure S6 and Figure S7). The spin-orbital coupling (SOC) values between the S1/S1V and T2 were calculated with ORCA 4.13. Hole-Electron analysis was carried […]
ISC rate constants calculation […]
Triplet lifetime measurements
The triplet life of QTCy7-R was measured by LP980 laser flash photolysis spectrometer (Edinburgh Instruments Ltd.) in combination with a Nd:YAG laser (Surelite I-10, Continuum Electro-Optics, Inc.). The oxygen in the sample was removed by aerating nitrogen for 30 min. The samples (5 μM) were excited by a 610 nm laser pulse (1 Hz, 100 mJ per pulse, fwhm ≈ 7 ns) at 300 K. The triplet state decay kinetics were measured at the maximum absorption wavelengths of each compound.
Fluorescence lifetime and femtosecond time-resolved transient absorption spectra […]
The fluorescence lifetimes and femtosecond time-resolved transient absorption spectra of dyes were recorded on a freshly prepared samples using the time-correlated single photon counting (TCSPC) method (PicoQuant PicoHarp 300) at 300 K. The concentration is 10 μM, solvent is DCM.
Hepatoma carcinoma cells (HepG-2 cells), human mammary carcinoma (MCF-7) and mouse breast cancer cells (4T1) were maintained in Dulbecco’s modified Eagle’s

In another data set the test system is HepG2 cells. The data set can be described thus: MTT cytotoxicity assay, HepG2. It counts as cell-based, human. Particulars: Homo sapiens, HepG2, light or radiation study, HepG2, 660 nm irradiation 12 J/cm^2. From the text:
To further quantitatively explore the in vitro anticancer potency of QTCy7-R, the methyl thiazolyltetrazolium (MTT) assay was employed to detect cell viability. […] Next, we evaluated the cytotoxicity under dark conditions of this series of compounds at high concentrations (Figure 9e), as due to the characteristics of mitochondrial accumulation, QTCy7-Me and QTCy7-Ph might lead to mitochondrial depolarization and apoptosis at high concentrations. However, its IC50 value could still reach about 60 μM, which was almost […] than those of all cyanine photosensitizers reported. […] The photocytotoxicity index value (dark IC50/light IC50) of QTCy7-Ac was >500, manifesting that QTCy7-Ac is a PS with high efficacy but low cytotoxicity, which is extremely promising in clinical application. […]
Cytotoxicity was tested by the reduction of methyl thiazolyl tetrazolium to formazan by succinic acid dehydrogenase in the mitochondria of living cells (MTT assay). HepG2 cells, MCF7 cells and 4T1 cells were seeded to 96-well microplates (Nunc, Denmark) with a density of 1 × 10^5 cells/mL cells in 100 μL DMEM medium and incubated at 37 °C for 24 h. When the cell density reached about 70%, the QTCy7-R with different concentrations (4, 3, 2, 1.5, 1, 0.75, 0.5, 0.25, 0 μM) in PBS were added to the wells of cells in dark condition, respectively. For light groups, the cell incubation conditions were the same as those of the dark group and the cells were further incubated for 2 h, subsequently, the cells were subjected to 660 nm irradiation (20 mW/cm2) for different time (10 min, 5 min and 2.5 min) corresponding to different light doses (12 J/cm2, 6 J/cm2 and 3 J/cm2). Then all the cells were incubated for 12 h, after which the MTT solution in DMEM (0.5 mg/ml, 100 μL) was added to each well and the cells were incubated at 37 °C for another 4 h. The MTT solution was carefully removed and 100 μL DMSO was added to dissolve formazan, and the absorbance of each well was measured by a multifunctional microplate reader at 570 nm and 630 nm. The cell viability was obtained by the following equation: […]
Where “OD” represent the absorbance at 570 nm and 630 nm, “ps” and “control” represent experimental groups and control groups, respectively. […]
A general note: Tetrazolium assays rely on reduction of a dye to a coloured formazan, in cell work by metabolically active cells.

SMILES strings stand for the structures. pIC50: −log10 of the molar value.

As to `CCN1/C(=C/C=C/C=C/C=C/c2sc3ccccc3[n+]2CC)Sc2ccccc21` [TCy7, reference compound], the “ΦΔ, singlet oxygen yield” value in data set [1] (DPBF method) was found to be 2.6%. Moreover, in data set [1] (methylene blue as standard, 660 nm irradiation), the “ΦΔ, singlet oxygen quantum yield” value is given as 0.026. Besides, the “ΦF, absolute fluorescence quantum yield” value in data set [2] is given as 19.3%. Moreover, in data set [2] (in dichloromethane), the “Δλ, Stokes shift” value was found to be 23 nm; the “λabs, maximum absorption wavelength” value amounted to 770 nm; the “λem, maximum emission wavelength” value is reported as 793 nm; the “τS, fluorescence lifetime” value stood at 1.54 ns.

One may read the pIC50 as the negative decadic logarithm of the IC50, by convention in mol/L. A higher pIC50 goes with a small IC50. In turn, `C=Cc1c(C)c2cc3nc(c(CC(=O)O)c4[nH]c(cc5nc(cc1[nH]2)C(C)=C5CC)c(C)c4C(=O)O)[C@@H](CCC(=O)O)[C@@H]3C` [Ce6, chlorin e6, reference compound] gave a pIC50 with HepG2 cells of 5.46.
